We go through four compounds from patent US7186553B1, “Human derived immortalized liver cell line” (Takeda Pharmaceutical Company Limited, priority 1998, dated 2007).

One data set has as its system CYP1A1. In words: Induction of expression of the CYP1A1 gene in OUMS-29 cells (RT-PCR). The following applies: 1 day after addition, 3-MC 0 to 10000 nM, BP 0 to 50000 nM, PB 0 to 25 mM, corrected to beta-actin mRNA. The text has this: (§1) The expression of cytochrome P450 in the OUMS-29 culture can be analyzed by assessing the level of mRNA content by the commonly known RT-PCR method using DNA primers specific to different types of cytochrome P450. These primers can be prepared from the sequences of the respective types of cytochrome P450 available from the Gene Bank database. The accession numbers at the Gene Bank are K03191 for CYP1A1, M55053 for CYP1A2, J02625 for CYP2E1, J04449 for CYP3A4, J04813 for CYP3A5, and D00408 for CYP3A7. The individual primers used were
(§2) The OUMS-29 culture was cultured for 5 to 7 days; the cells becoming confluent were harvested, from which RNA was extracted using the RNAeasy kit (Quiagen). This RNA, along with the previously determined primers specific to the respective types of cytochrome P450, was subjected to reverse transcription from mRNA and PCR using an one-step PCR kit (Takara Shuzo), after which it was separated using agarose gel and visualized with ultraviolet rays in the presence of ethidium bromide.
(§3) The cultured cells were separated, from which RNA was extracted using the method described above and subjected to RT-PCR.
(§4) Regarding annealing conditions for the RT-PCR method, the annealing temperatures were 55° C. for CYP1A1, 65° C. for CYP1A2, and 55° C. for CYP3A, the cycle numbers being 28 to 36 cycles.
The cycle number for beta-actin, serving as a control, was 15 cycles.
In this operation, an actin competitive RT-PCR kit (Takara Shuzo) was used to correct the total mRNA content in each sample with reference to the mRNA content of beta-actin, which is expressed to the same extent in all tissues.

The next data set concerns CYP1A2. In words: Induction of expression of the CYP1A2 gene in OUMS-29 cells (RT-PCR). The conditions noted are these: 1 day after addition, 3-MC 0 to 10000 nM, BP 0 to 50000 nM, corrected to beta-actin mRNA.
Text: as §1, §2, §3, §4
The cycle number for beta-actin, serving as a control, was 15 cycles. […]

Data set [1] has as its target T1, NADPH cytochrome P450 reductase (Homo sapiens, UniProt P16435).
T1 construct: disrupted using an ultrasound generator; this suspension was used as the enzyme source; endogenous in cells; host or cells: OUMS-29 (SV40 T antigen-immortalized human fetal hepatocytes), sonicated cell suspension
T1 sequence (P16435 1-677): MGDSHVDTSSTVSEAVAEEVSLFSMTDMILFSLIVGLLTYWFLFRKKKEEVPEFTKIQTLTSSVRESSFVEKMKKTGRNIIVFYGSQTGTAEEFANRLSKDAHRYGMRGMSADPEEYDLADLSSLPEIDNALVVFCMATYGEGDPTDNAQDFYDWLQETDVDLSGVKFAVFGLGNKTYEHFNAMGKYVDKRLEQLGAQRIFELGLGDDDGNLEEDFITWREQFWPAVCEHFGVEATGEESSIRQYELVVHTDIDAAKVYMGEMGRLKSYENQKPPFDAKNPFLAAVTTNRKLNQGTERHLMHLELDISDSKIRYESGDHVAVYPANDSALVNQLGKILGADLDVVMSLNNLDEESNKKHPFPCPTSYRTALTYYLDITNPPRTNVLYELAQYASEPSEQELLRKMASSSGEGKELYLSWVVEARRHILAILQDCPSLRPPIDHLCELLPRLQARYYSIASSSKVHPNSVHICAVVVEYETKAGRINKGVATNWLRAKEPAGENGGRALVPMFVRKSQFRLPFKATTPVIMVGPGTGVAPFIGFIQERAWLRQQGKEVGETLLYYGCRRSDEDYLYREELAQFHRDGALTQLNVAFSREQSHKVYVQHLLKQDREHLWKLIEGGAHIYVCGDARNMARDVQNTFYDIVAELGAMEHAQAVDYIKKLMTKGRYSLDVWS
The experiment in a line: Cytochrome P450 reductase activity of enzyme source of OUMS-29 origin (cytochrome C reduction). The following applies: disrupted OUMS-29 cells, with NADPH; 1 unit = reducing 1 nanomol of cytochrome C per milligram of protein per minute. In kind it is in vitro ADME. The procedure: Specifically, cytochrome P450 reductase activity was determined on the basis of cytochrome C reduction in the presence of NADPH (reduced nicotinamide adenine dinucleotide phosphate) and an enzyme source of OUMS-29 origin with cytochrome C as the substrate.

`Cc1ccc2cc3c(ccc4ccccc43)c3c2c1CC3` [3-methylcholanthrene]: the “expression of CYP1A1 (mRNA, RT-PCR)” value with CYP1A1 was “enhanced”. The “expression of CYP1A2 (mRNA, RT-PCR)” value in the data set on CYP1A2 was “enhanced”.

`c1ccc2c(c1)c1cccc3ccc4cccc2c4c31` [benzpyrene]: the “expression of CYP1A1 (mRNA, RT-PCR)” value in the data set on CYP1A1 is “enhanced”. Moreover, in the data set with CYP1A2, the “expression of CYP1A2 (mRNA, RT-PCR)” value was “enhanced”. Consider `CCC1(c2ccccc2)C(=O)NC(=O)NC1=O` [phenobarbitone], for which the “expression of CYP1A1 (mRNA, RT-PCR)” value in the data set on CYP1A1 is given as “enhanced”. On to cytochrome C, for which, in data set [1], the “cytochrome C reduction (cytochrome P450 reductase activity)” value is on record as 8 units.
